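Tested at 5 concentrations; 48 h exposure; 96-well plates; endpoints linearly interpolated, else capped at highest concentration. GI50 marks 50% less growth.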 The source made the active and inactive calls. Cut-off read from the data, not from the text of the source: active = GI50 up to about 1.1 µM and inactive = higher.
Legend:
Assay in all cases: NCI anticancer screen, dose series, 48 h
SR = tested on: SR
CCRF-CEM = tested on: CCRF-CEM
SN12C = tested on: SN12C
U-251 = tested on: U-251
HOP-62 = tested on: HOP-62
UO-31 = tested on: UO-31
COLO 205 = tested on: COLO 205
MDA-MB-231 = tested on: MDA-MB-231
MDA-N = tested on: MDA-N
OVCAR-5 = tested on: OVCAR-5
HCT-15 = tested on: HCT-15
HCC 2998 = tested on: HCC 2998
MCF7 = tested on: MCF7
CAKI-1 = tested on: CAKI-1
Hs-578T = tested on: Hs-578T
HL-60 = tested on: HL-60
SF-539 = tested on: SF-539
NCI-H460 = tested on: NCI-H460

With `CCn1cc2c(=O)n3ncn(-c4ccc(Br)cc4)c3nc2n1` the GI50 (SR) was > 100 µM (inactive), the GI50 (CCRF-CEM) was > 100 µM (inactive) and the GI50 (SN12C) was > 100 µM (inactive). The GI50 (U-251) was 58.1 µM (inactive), the GI50 (HOP-62) was 38.5 µM (inactive) and the GI50 (UO-31) was > 100 µM (inactive). For the same compound, the GI50 (COLO 205) was > 100 µM (inactive), the GI50 (MDA-MB-231) was 40.6 µM (inactive) and the GI50 (MDA-N) was > 100 µM (inactive). For the same compound, the GI50 (OVCAR-5) was > 100 µM (inactive), the GI50 (HCT-15) was 93.8 µM and the GI50 (HCC 2998) was > 100 µM (inactive). For the same compound, the GI50 (MCF7) was > 100 µM (inactive), the GI50 (CAKI-1) was 0.942 µM (active) and the GI50 (Hs-578T) was 29.9 µM (inactive). For the same compound, the GI50 (HL-60) was > 100 µM (inactive).

`BrC(=C(c1ccc(OC2CCCCO2)cc1)c1ccc(OC2CCCCO2)cc1)c1ccccc1` (centres undefined) was tested, and the GI50 (SR) was > 100 µM (inactive), the GI50 (CCRF-CEM) was > 100 µM (inactive) and the GI50 (SN12C) was > 100 µM (inactive). For the same compound, the GI50 (SF-539) was > 100 µM (inactive), the GI50 (U-251) was > 100 µM (inactive) and the GI50 (HOP-62) was > 100 µM (inactive). The GI50 (UO-31) was > 100 µM (inactive), the GI50 (COLO 205) was > 100 µM (inactive) and the GI50 (MDA-MB-231) was > 100 µM (inactive). For the same compound, the GI50 (MDA-N) was > 100 µM (inactive), the GI50 (HCT-15) was > 100 µM and the GI50 (MCF7) was > 100 µM (inactive). For the same compound, the GI50 (NCI-H460) was > 100 µM (inactive), the GI50 (CAKI-1) was > 100 µM (inactive) and the GI50 (Hs-578T) was > 100 µM (inactive). For the same compound, the GI50 (HL-60) was > 100 µM (inactive).

In the case of `CCOC(=O)c1nc2ccc(C(F)(F)F)cc2nc1Nc1ccc(Cl)c(Cl)c1`, the GI50 (SR) is reported as 75.3 µM (inactive), the GI50 (CCRF-CEM) is reported as 86.1 µM (inactive) and the GI50 (SN12C) is reported as > 100 µM (inactive). For the same compound, the GI50 (SF-539) was 69.7 µM (inactive), the GI50 (HOP-62) was 27.5 µM (inactive) and the GI50 (UO-31) was > 100 µM (inactive). For the same compound, the GI50 (COLO 205) was > 100 µM (inactive), the GI50 (MDA-MB-231) was 60 µM (inactive) and the GI50 (MDA-N) was 96.8 µM (inactive). For the same compound, the GI50 (OVCAR-5) was > 100 µM (inactive), the GI50 (HCT-15) was 94.4 µM and the GI50 (HCC 2998) was 39.5 µM (inactive). For the same compound, the GI50 (MCF7) was > 100 µM (inactive), the GI50 (NCI-H460) was > 100 µM (inactive) and the GI50 (CAKI-1) was 57.1 µM (inactive). The GI50 (Hs-578T) was 97.3 µM (inactive) and the GI50 (HL-60) was 95.7 µM (inactive).

With `O=c1cc(/C=C/c2ccc(O)c(O)c2)cc(/C=C/c2ccc(O)c(O)c2)o1` the GI50 (SR) was 1.24 µM (inactive), the GI50 (CCRF-CEM) was 7.66 µM (inactive) and the GI50 (SN12C) was 9.71 µM (inactive). The GI50 (SF-539) was 8.15 µM (inactive), the GI50 (U-251) was 6.95 µM (inactive) and the GI50 (HOP-62) was 10.5 µM (inactive). The GI50 (UO-31) was 4.22 µM (inactive), the GI50 (COLO 205) was 12.1 µM (inactive) and the GI50 (MDA-MB-231) was 11.5 µM (inactive). The GI50 (MDA-N) was 11.6 µM (inactive), the GI50 (OVCAR-5) was 12.2 µM (inactive) and the GI50 (HCT-15) was 10.4 µM. The GI50 (HCC 2998) was 6.68 µM (inactive), the GI50 (MCF7) was 4.05 µM (inactive) and the GI50 (NCI-H460) was 14.3 µM (inactive). For the same compound, the GI50 (CAKI-1) was 10.9 µM (inactive) and the GI50 (Hs-578T) was 8.05 µM (inactive).

For `COc1ccc(Nc2nc(N)c(C(=O)c3ccc(Cl)cc3)s2)cc1`, the GI50 (CCRF-CEM) was < 0.01 µM (active), the GI50 (SN12C) was 0.307 µM (active) and the GI50 (SF-539) was < 0.01 µM (active). The GI50 (U-251) was < 0.01 µM (active), the GI50 (HOP-62) was < 0.01 µM (active) and the GI50 (UO-31) was < 0.01 µM (active). For the same compound, the GI50 (COLO 205) was 0.0261 µM (active), the GI50 (MDA-MB-231) was 0.047 µM (active) and the GI50 (MDA-N) was < 0.01 µM (active). The GI50 (OVCAR-5) was 0.505 µM (active), the GI50 (HCT-15) was 0.0439 µM and the GI50 (HCC 2998) was 0.0357 µM (active). For the same compound, the GI50 (MCF7) was 0.356 µM (active), the GI50 (NCI-H460) was < 0.01 µM (active) and the GI50 (CAKI-1) was < 0.01 µM (active). The GI50 (Hs-578T) was < 0.01 µM (active) and the GI50 (HL-60) was < 0.01 µM (active).

With `COc1ccc(OC)c(-c2cn3c(n2)sc2ccccc23)c1` the GI50 (SR) was > 100 µM (inactive), the GI50 (CCRF-CEM) was > 100 µM (inactive) and the GI50 (SN12C) was > 100 µM (inactive). For the same compound, the GI50 (SF-539) was > 100 µM (inactive), the GI50 (U-251) was > 100 µM (inactive) and the GI50 (HOP-62) was > 100 µM (inactive). For the same compound, the GI50 (UO-31) was > 100 µM (inactive), the GI50 (COLO 205) was > 100 µM (inactive) and the GI50 (MDA-MB-231) was > 100 µM (inactive). For the same compound, the GI50 (MDA-N) was > 100 µM (inactive), the GI50 (OVCAR-5) was > 100 µM (inactive) and the GI50 (HCT-15) was > 100 µM. For the same compound, the GI50 (MCF7) was 3.44 µM (inactive), the GI50 (NCI-H460) was > 100 µM (inactive) and the GI50 (CAKI-1) was > 100 µM (inactive). The GI50 (Hs-578T) was 39.7 µM (inactive) and the GI50 (HL-60) was > 100 µM (inactive).

With `O/N=N/c1ccc2ccccc2n1` the GI50 (SR) was > 100 µM (inactive), the GI50 (CCRF-CEM) was > 100 µM (inactive) and the GI50 (SN12C) was > 100 µM (inactive). For the same compound, the GI50 (SF-539) was > 100 µM (inactive), the GI50 (U-251) was > 100 µM (inactive) and the GI50 (HOP-62) was > 100 µM (inactive). For the same compound, the GI50 (UO-31) was > 100 µM (inactive), the GI50 (COLO 205) was > 10 µM (inactive) and the GI50 (MDA-MB-231) was > 100 µM (inactive). For the same compound, the GI50 (MDA-N) was > 100 µM (inactive), the GI50 (OVCAR-5) was > 100 µM (inactive) and the GI50 (HCT-15) was > 100 µM. For the same compound, the GI50 (MCF7) was > 100 µM (inactive), the GI50 (NCI-H460) was > 100 µM (inactive) and the GI50 (CAKI-1) was > 100 µM (inactive). The GI50 (Hs-578T) was > 100 µM (inactive) and the GI50 (HL-60) was > 100 µM (inactive).

In the case of `O=c1[nH]nc(Cc2ccc(Cl)cc2)n1/N=C\CC/C=N\n1c(Cc2ccc(Cl)cc2)n[nH]c1=O`, the GI50 (SR) is reported as 3.1 µM (inactive), the GI50 (SN12C) is reported as 59.2 µM (inactive) and the GI50 (SF-539) is reported as 8.49 µM (inactive). For the same compound, the GI50 (U-251) was 16.4 µM (inactive), the GI50 (HOP-62) was 8.83 µM (inactive) and the GI50 (UO-31) was > 100 µM (inactive). The GI50 (COLO 205) was > 100 µM (inactive), the GI50 (MDA-MB-231) was 25.8 µM (inactive) and the GI50 (MDA-N) was > 50.9 µM (inactive). For the same compound, the GI50 (OVCAR-5) was > 100 µM (inactive), the GI50 (HCT-15) was 35.2 µM and the GI50 (HCC 2998) was > 100 µM (inactive). The GI50 (MCF7) was 21.6 µM (inactive), the GI50 (NCI-H460) was > 100 µM (inactive) and the GI50 (CAKI-1) was > 56 µM (inactive). For the same compound, the GI50 (Hs-578T) was 11.4 µM (inactive) and the GI50 (HL-60) was > 24.2 µM (inactive).

From ChEMBL document CHEMBL1201862, “PubChem BioAssay data set” (2004)
